This note sets out measurements from patent publication US10106559B2, “Substituted tetrahydrocarbazole and carbazole carboxamide compounds” (BRISTOL-MYERS SQUIBB COMPANY, priority 2013, dated 2018).

For assay [1], the target named is human recombinant Btk (Homo sapiens (Human), UniProt Q06187). Briefly: Human Recombinant Btk Enzyme Assay. The class given is biochemical.
In assay [2] the target is Jak2 tyrosine kinase (Homo sapiens (Human), UniProt O60674). Briefly: Jak2 Tyrosine Kinase Assay. Conditions: for Ratio of Jak2/Btk IC50 values: selectivity: Jak2 IC50 divided by Btk IC50. Format: biochemical.
Assay [3] has as its system CD69 expression on B cells in human whole blood. Briefly: Whole Blood Assay of BCR-Stimulated CD69 Expression on B Cells. Conditions: B-cell. The class given is cell-based.

Bounds are passed on as bounds.

human recombinant Btk, sequence (Q06187 whole entry): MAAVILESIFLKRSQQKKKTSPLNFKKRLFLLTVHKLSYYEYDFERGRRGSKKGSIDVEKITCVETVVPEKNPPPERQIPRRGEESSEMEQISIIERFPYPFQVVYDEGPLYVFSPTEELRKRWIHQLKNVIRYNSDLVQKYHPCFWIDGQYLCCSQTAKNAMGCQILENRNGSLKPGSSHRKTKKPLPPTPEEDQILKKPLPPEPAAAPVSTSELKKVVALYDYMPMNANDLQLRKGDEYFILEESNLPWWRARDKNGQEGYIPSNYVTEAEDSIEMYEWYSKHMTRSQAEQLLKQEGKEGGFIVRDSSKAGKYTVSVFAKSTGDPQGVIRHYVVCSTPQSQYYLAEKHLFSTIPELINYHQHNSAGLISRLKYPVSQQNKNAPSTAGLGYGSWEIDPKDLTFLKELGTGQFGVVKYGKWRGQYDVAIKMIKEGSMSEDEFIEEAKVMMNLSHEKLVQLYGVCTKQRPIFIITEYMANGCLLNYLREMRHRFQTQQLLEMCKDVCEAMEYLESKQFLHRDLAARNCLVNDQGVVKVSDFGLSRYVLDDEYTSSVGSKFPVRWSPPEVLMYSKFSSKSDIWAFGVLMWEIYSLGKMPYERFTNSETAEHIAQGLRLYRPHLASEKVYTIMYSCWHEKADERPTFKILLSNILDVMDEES
Jak2 tyrosine kinase, sequence (O60674 whole entry): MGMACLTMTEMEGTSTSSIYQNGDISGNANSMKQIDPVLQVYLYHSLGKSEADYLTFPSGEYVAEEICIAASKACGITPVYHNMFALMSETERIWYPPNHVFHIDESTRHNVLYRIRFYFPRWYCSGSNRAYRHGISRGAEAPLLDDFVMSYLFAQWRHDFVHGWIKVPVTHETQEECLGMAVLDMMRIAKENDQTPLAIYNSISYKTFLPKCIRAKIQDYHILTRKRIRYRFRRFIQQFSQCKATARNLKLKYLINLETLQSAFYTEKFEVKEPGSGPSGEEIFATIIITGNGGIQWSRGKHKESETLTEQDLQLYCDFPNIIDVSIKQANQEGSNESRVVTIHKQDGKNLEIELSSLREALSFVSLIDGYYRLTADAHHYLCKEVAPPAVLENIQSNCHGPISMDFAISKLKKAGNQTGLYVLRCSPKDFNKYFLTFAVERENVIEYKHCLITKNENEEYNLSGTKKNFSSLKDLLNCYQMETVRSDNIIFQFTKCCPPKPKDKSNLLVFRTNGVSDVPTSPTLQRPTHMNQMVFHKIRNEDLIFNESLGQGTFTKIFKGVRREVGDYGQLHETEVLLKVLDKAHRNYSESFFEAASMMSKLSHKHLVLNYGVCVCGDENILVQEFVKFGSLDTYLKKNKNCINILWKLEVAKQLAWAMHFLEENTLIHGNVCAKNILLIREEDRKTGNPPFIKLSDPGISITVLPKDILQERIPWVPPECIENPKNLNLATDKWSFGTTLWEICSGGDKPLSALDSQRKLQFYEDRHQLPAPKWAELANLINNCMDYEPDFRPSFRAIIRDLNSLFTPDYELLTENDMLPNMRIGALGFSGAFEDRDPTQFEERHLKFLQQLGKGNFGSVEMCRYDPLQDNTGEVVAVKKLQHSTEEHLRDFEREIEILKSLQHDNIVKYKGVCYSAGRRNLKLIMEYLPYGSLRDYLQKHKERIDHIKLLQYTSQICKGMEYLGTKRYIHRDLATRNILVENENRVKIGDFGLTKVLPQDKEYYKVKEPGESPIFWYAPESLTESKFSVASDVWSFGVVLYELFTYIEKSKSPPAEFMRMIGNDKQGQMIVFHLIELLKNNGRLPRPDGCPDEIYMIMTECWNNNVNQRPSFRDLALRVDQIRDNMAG

For orientation: IC50 means the concentration that inhibits the measured activity by half. In the case of `Cc1c(-c2c(Cl)cc(C(N)=O)c3[nH]c4cc(C(C)(C)O)ccc4c23)cccc1-n1c(=O)[nH]c2c(F)cc(F)cc2c1=O` (single isomer, unassigned) [Example 48], the IC50 in assay [1] turned out to be 0.33 nM; in assay [2] it was 1100 nM; in assay [3] it was 25 nM. The “Ratio of Jak2/Btk IC50 values” in assay [2] was 3300.

For the molecule `Cc1c(-c2c(F)cc(C(N)=O)c3[nH]c4cc(C(C)(C)O)ccc4c23)cccc1-n1c(=O)[nH]c2c(F)cc(F)cc2c1=O` (single isomer, unassigned) [Example 50], the IC50 in assay [1] turned out to be 0.32 nM. Moreover, in assay [2], it took 1200 nM to reach half-maximal inhibition (IC50) and the “Ratio of Jak2/Btk IC50 values” is on record as 3800.

In the case of `Cc1c(-c2c(F)cc(C(N)=O)c3[nH]c4cc(C(C)(C)O)ccc4c23)cccc1-n1c(=O)[nH]c2cc(F)ccc2c1=O` (single isomer, unassigned) [Example 51], the IC50 in assay [1] is 0.3 nM; in assay [2] it was above 2000 nM; in assay [3], 190 nM. In assay [2], the “Ratio of Jak2/Btk IC50 values” was above 6700.

In the case of `Cc1c(-c2c(F)cc(C(N)=O)c3[nH]c4cc(C(C)(C)O)ccc4c23)cccc1-n1c(=O)[nH]c2c(Cl)cccc2c1=O` (single isomer, unassigned) [Example 53], the IC50 in assay [1] stood at 1.1 nM; in assay [2], 2200 nM. Moreover, the “Ratio of Jak2/Btk IC50 values” in assay [2] worked out at 2000.

As for `Cc1c(-c2c(F)cc(C(N)=O)c3[nH]c4cc(C(C)(C)O)ccc4c23)cccc1-n1c(=O)[nH]c2c(Cl)cccc2c1=O` (single isomer, unassigned) [Example 54], the IC50 in assay [1] came out at 0.35 nM. Further, in assay [2], the IC50 was 1200 nM and the “Ratio of Jak2/Btk IC50 values” stood at 3400.

As to `Cc1c(-c2c(F)cc(C(N)=O)c3[nH]c4c(c23)CC[C@H](C(C)(C)O)C4)cccc1-n1c(=O)[nH]c2c(Cl)cccc2c1=O` (single isomer, unassigned) [Example 63], the “Ratio of Jak2/Btk IC50 values” in assay [2] turned out to be 24000. Besides, half-maximal inhibition in assay [3] (IC50) was put at 190 nM.

As for `Cc1cc(C(N)=O)c2[nH]c3cc(C(C)(C)O)ccc3c2c1-c1cccc(-n2c(=O)[nH]c3c(F)cccc3c2=O)c1C` (single isomer, unassigned) [Example 66], the values for the IC50 in assay [1] and in assay [3] were 0.34 nM and 89 nM, respectively.

`Cc1c(-c2c(F)cc(C(N)=O)c3[nH]c4c(c23)CC[C@H](C(C)(C)O)C4)cccc1-n1c(=O)cc2c(F)cccn2c1=O` (single isomer, unassigned) [Example 68]: the “Ratio of Jak2/Btk IC50 values” in assay [2] stood at 630. The molecule further showed a concentration for half-maximal inhibition (IC50) in assay [3] of 75 nM.

Consider `Cc1c(-c2c(C#N)cc(C(N)=O)c3[nH]c4cc(C(C)(C)O)ccc4c23)cccc1-n1c(=O)cc2c(Cl)cccn2c1=O` (single isomer, unassigned) [Example 72], for which the IC50 in assay [1] worked out at 0.49 nM; in assay [2], 770 nM; in assay [3] it was 200 nM. Besides, the “Ratio of Jak2/Btk IC50 values” in assay [2] came out at 1600.

For `Cc1c(-c2c(F)cc(C(N)=O)c3[nH]c4cc(C(C)(C)O)ccc4c23)cccc1-n1c(=O)c2cccc(F)c2n(C)c1=O` (single isomer, unassigned) [Example 74], the figures for the IC50 in assay [2] and in assay [3] were 4300 nM and 180 nM, respectively.

With `COc1cccn2c(=O)n(-c3cccc(-c4c(Cl)cc(C(N)=O)c5[nH]c6cc(C(C)(C)O)ccc6c45)c3C)c(=O)cc12` [Example 37, 3-Chloro-7-(2-hydroxypropan-2-yl)-4-(3-(5-methoxy-1,3-dioxo-1H-pyrido[1,2-c]pyrimidin-2(3H)-yl)-2-methylphenyl)-9H-carbazole-1-carboxamide], the “Ratio of Jak2/Btk IC50 values” in assay [2] worked out at 690. For the same molecule, 200 nM corresponded to half-maximal inhibition in assay [3] (IC50).

For `Cc1c(-c2c(F)cc(C(N)=O)c3[nH]c4cc(C(C)(C)O)ccc4c23)cccc1-n1c(=O)[nH]c2c(F)cc(F)cc2c1=O` [Example 49], the IC50 in assay [1] is 0.77 nM; in assay [2] it was above 2000 nM; in assay [3], 17 nM. Besides, the “Ratio of Jak2/Btk IC50 values” in assay [2] was above 2600.

For the molecule `Cc1c(-c2c(F)cc(C(N)=O)c3[nH]c4cc(CCO)ccc4c23)cccc1-n1c(=O)cc2c(F)cccn2c1=O` [Example 70], the “Ratio of Jak2/Btk IC50 values” in assay [2] was determined as 930. This molecule also showed an IC50 in assay [3] of 66 nM.

Turning to `Cc1cc(C(N)=O)c2[nH]c3cc(C(C)(C)O)ccc3c2c1-c1cccc(-n2c(=O)cc3c(Cl)cccn3c2=O)c1C` [Example 71], the IC50 in assay [1] is 0.41 nM; in assay [2], 800 nM.
